Marks after values point to notes of the source that are not given here.
Assay: logP determination via retention times, calibrated with unbranched alkan-2-ones
Type: physicochemical
Details: linear gradient 10% to 95% acetonitrile
[1] = HPLC on reversed-phase C18, method *: 40° C., 0.1% aqueous formic acid and acetonitrile
[2] = HPLC on reversed-phase C 18, method **: 43° C., 0.1% aqueous phosphoric acid and acetonitrile
[3] = HPLC reversed-phase C 18, EEC Directive 79/831 Annex V.A8, method *: 40° C., 0.1% aqueous formic acid and acetonitrile
[4] = HPLC reversed-phase C 18, EEC Directive 79/831 Annex V.A8, method **: 43° C., 0.1% aqueous phosphoric acid and acetonitrile

Row | Structure (SMILES) | logP [3] | also measured
1 | CS(=O)(=O)Nc1ccc(Nc2ncc(Br)c(NC3CC3)n2)cc1 [compound 756] |  | logP [1]: 1.44*
2 | CNS(=O)(=O)Cc1ccc(Nc2ncc(Br)c(NC3CC3)n2)cc1 [compound 757] |  | logP [1]: 1.51*
3 | CCOC(=O)Cc1ccc(Nc2ncc(Br)c(NC3CC3)n2)cc1 [compound 758] |  | logP [1]: 2.06*
4 | N#CCC(=O)c1ccc(Nc2ncc(Br)c(NC3CC3)n2)cc1 [compound 759] |  | logP [1]: 2.16*
5 | CCC(=O)c1cc(Nc2ncc(Br)c(NC3CC3)n2)ccc1O [compound 760] |  | logP [1]: 2.06*
6 | COc1cc(Nc2ncc(Br)c(NC3CC3)n2)cc(OC)c1OC [compound 761] |  | logP [1]: 1.71*
7 | COC(=O)c1ccc(Nc2ncc(Br)c(NC3CC3)n2)cc1 [compound 762] |  | logP [1]: 2.4*
8 | CC(=O)c1cc(Nc2ncc(Br)c(NC3CC3)n2)ccc1O [compound 763] |  | logP [1]: 1.75*
9 | Oc1ccc(Nc2ncc(Br)c(NC3CC3)n2)cc1F [compound 764] |  | logP [1]: 1.41*
10 | Oc1cccc(Nc2ncc(Br)c(NC3CC3)n2)c1 [compound 765] |  | logP [1]: 1.39*
11 | OCc1cccc(Nc2ncc(Br)c(NC3CC3)n2)c1 [compound 766] |  | logP [1]: 1.37*
12 | CCC(=O)Nc1cc(Nc2ncc(Br)c(NC3CC3)n2)ccc1O [compound 767] |  | logP [1]: 1.85*
13 | O=C(O)Cc1cccc(Nc2ncc(Cl)c(NC3CC3)n2)c1 [compound 768] |  | logP [1]: 1.23*
14 | CN(c1nc(Nc2cccc(N3CCCC3=O)c2)ncc1Cl)C1CC1 [compound 769] |  | logP [2]: 2.22**
15 | O=C(c1cccc(Nc2ncc(Cl)c(NC3CC3)n2)c1)N1CCCCC1 [compound 770] |  | logP [1]: 1.94*
16 | O=C1CCCN1c1cc(Nc2ncc(Br)c(NC3CC3)n2)ccc1F [compound 771] |  | logP [2]: 1.61**
17 | COCc1cccc(Nc2ncc(C(F)F)c(NCC3CC3)n2)c1 [compound 772] |  | logP [1]: 1.73*
18 | FC(F)c1cnc(Nc2ccccc2)nc1NCC1CC1 [compound 773] |  | logP [1]: 1.68*
19 | O=C1CCCN1c1cccc(Nc2ncc(C(F)F)c(NCC3CC3)n2)c1 [compound 774] |  | logP [1]: 1.48*
20 | CCc1cccc(Nc2ncc(Br)c(NC3CC3)n2)c1 [compound 775] | 2.44* | 
21 | CCc1cccc(Nc2ncc(Cl)c(NCC3CC3)n2)c1 [compound 776] | 2.37* | 
22 | CC(C)c1cccc(Nc2ncc(Cl)c(NCC3CC3)n2)c1 [compound 777] | 2.71* | 
23 | CC(C)(C)c1cccc(Nc2ncc(Cl)c(NC3CC3)n2)c1 [compound 778] | 2.9* | 

Row | Structure (SMILES) | logP [3] | also measured
24 | CC(C)(C)c1cccc(Nc2ncc(Br)c(NC3CC3)n2)c1 [compound 779] | 3.14* | 
25 | CC(=O)Cc1cccc(Nc2ncc(Cl)c(NC3CC3)n2)c1 [compound 780] | 1.51* | 
26 | CC(=O)Cc1cccc(Nc2ncc(Cl)c(NCC3CC3)n2)c1 [compound 781] | 1.67* | 
27 | CC(=O)Cc1cccc(Nc2ncc(Br)c(NC3CC3)n2)c1 [compound 782] | 1.64* | 
28 | CC(=O)Cc1cccc(Nc2ncc(C(F)(F)F)c(NC3CC3)n2)c1 [compound 783] | 2.42* | 
29 | CC(C)(O)c1cccc(Nc2ncc(Cl)c(NC3CC3)n2)c1 [compound 784] | 1.47* | 
30 | O=C(O)c1cccc(Nc2ncc(Cl)c(NC3CC3)n2)c1 [compound 785] | 1.32* | 
31 | O=C1COCCN1c1cccc(Nc2ncc(Cl)c(NCC3CC3)n2)c1 [compound 786] | 1.31* | 
32 | O=[N+]([O-])c1cccc(Nc2ncc(Cl)c(NC3CC3)n2)c1 [compound 788] | 2.63* | 
33 | O=C1COCCN1c1cccc(Nc2ncc(Br)c(NC3CC3)n2)c1 [compound 789] | 1.24* | 
34 | O=C1COCCN1c1cccc(Nc2ncc(C(F)(F)F)c(NC3CC3)n2)c1 [compound 790] | 1.88* | 
35 | O=C1COCCN1c1cccc(Nc2ncc(Cl)c(NC3CC3)n2)c1 [compound 791] | 1.2* | 
36 | COC(c1cccc(Nc2ncc(Cl)c(NCC3CC3)n2)c1)C(F)(F)F (stereo not shown) [compound 792] | 2.74* | 
37 | COCC(=O)Nc1cccc(Nc2ncc(Cl)c(NC3CC3)n2)c1 [compound 793] | 1.33* | 
38 | N#CCc1cccc(Nc2ncc(Br)c(NC3CC3)n2)c1 [compound 794] | 1.75* | 
39 | O=C(O)CCc1cccc(Nc2ncc(Cl)c(NC3CC3)n2)c1 [compound 795] | 1.09* | 
40 | COCC(C)NC(=O)c1cccc(Nc2ncc(Cl)c(NC3CC3)n2)c1 (stereo not shown) [compound 796] | 1.47* | 
41 | CCSC(C)c1cccc(Nc2ncc(Br)c(NC3CC3)n2)c1 (stereo not shown) [compound 797] | 3.09* | 
42 | OC(c1cccc(Nc2ncc(Br)c(NC3CC3)n2)c1)C(F)(F)F (stereo not shown) [compound 798] | 1.94* | 
43 | Clc1cnc(Nc2ccccc2)nc1NCC1CC1(Cl)Cl (stereo not shown) [compound 800] | 2.46* | 
44 | Clc1cnc(Nc2ccccc2)nc1NC1(COc2ccccc2)CC1 [compound 801] | 2.88* | 
45 | CC1COC(=O)N1c1cccc(Nc2ncc(F)c(NC3CC3)n2)c1 (stereo not shown) [compound 802] | 1.18* | 
46 | O=C1CCCCN1c1cccc(Nc2ncc(C(F)(F)F)c(NC3CC3)n2)c1 [compound 803] | 2.18* | 

Row | Structure (SMILES) | logP [3] | also measured
47 | O=C1CCCCN1c1cccc(Nc2ncc(F)c(NC3CC3)n2)c1 [compound 804] | 1.16* | 
48 | COC(C)c1cccc(Nc2ncc(Br)c(NC3CC3)n2)c1 (stereo not shown) [compound 805] | 2.08* | 
49 | COC(C)c1cccc(Nc2ncc(Cl)c(NC3CC3)n2)c1 (stereo not shown) [compound 806] | 1.96* | 
50 | CSC(C)c1cccc(Nc2ncc(Cl)c(NC3CC3)n2)c1 (stereo not shown) [compound 807] | 2.52* | 
51 | ClC1(Cl)CC1CNc1nc(Nc2ccccc2)ncc1Br (stereo not shown) [compound 808] | 2.6* | 
52 | Brc1cnc(Nc2ccccc2)nc1NCCC1CC1 [compound 809] | 2.18* | 
53 | CCSC(C)c1cccc(Nc2ncc(Cl)c(NC3CC3)n2)c1 (stereo not shown) [compound 810] | 2.82* | 
54 | CSC(C)c1cccc(Nc2ncc(Br)c(NC3CC3)n2)c1 (stereo not shown) [compound 811] | 2.63* | 
55 | N#CCc1cc(Nc2ncc(Cl)c(NC3CC3)n2)ccc1F [compound 813] | 1.76* | 
56 | N#CCc1cc(Nc2ncc(Cl)c(NCC3CC3)n2)ccc1F [compound 816] | 1.87* | 
57 | COc1cc(CC#N)ccc1Nc1ncc(Cl)c(NC2CC2)n1 [compound 817] | 1.82* | 
58 | COc1cc(CC#N)ccc1Nc1ncc(Br)c(NC2CC2)n1 [compound 818] | 1.99* | 
59 | Cc1ccc(Nc2ncc(Cl)c(NC3CC3)n2)cc1CC#N [compound 819] | 1.79* | 
60 | Cc1ccc(Nc2ncc(Br)c(NC3CC3)n2)cc1CC#N [compound 820] | 1.85* | 
61 | N#CCc1cccc(Nc2ncc(Cl)c(NCC3CC3)n2)c1 [compound 821] | 1.81* | 
62 | CC(=O)Nc1ccc(Nc2ncc(Cl)c(NC3CC3)n2)cc1O [compound 822] | 1* | 
63 | CC(C)(C)CSCc1ccc(Nc2ncc(Cl)c(NC3CC3)n2)cc1 [compound 823] | 3.78* | 
64 | CN(C)C(=O)c1ccc(Nc2ncc(C(F)(F)F)c(NC3CC3)n2)cc1 [compound 824] | 2.08* | 
65 | CSC(C)c1cccc(Nc2ncc(C(F)(F)F)c(NC3CC3)n2)c1 (stereo not shown) [compound 825] | 3.81* | 
66 | COC(C)c1cccc(Nc2ncc(C(F)(F)F)c(NC3CC3)n2)c1 (stereo not shown) [compound 826] | 3.16* | 
67 | CSC(C)c1cccc(Nc2ncc(C(F)(F)F)c(NCC3CC3)n2)c1 (stereo not shown) [compound 827] | 3.95* | 
68 | CC(C)(C)c1ccc(Nc2ncc(Cl)c(NC3CC3)n2)cc1 [compound 829] | 2.92* | 
69 | CC(C)(C)NC(=O)c1cccc(Nc2ncc(Cl)c(NC3CC3)n2)c1 [compound 831] | 2.07* | 

Row | Structure (SMILES) | logP [3] | also measured
70 | N#CCc1ccc(Nc2ncc(Cl)c(NC3CC3)n2)cc1 [compound 832] | 1.59* | 
71 | O=c1ccccn1-c1cccc(Nc2ncc(Br)c(NC3CC3)n2)c1 [compound 833] | 1.46*; | logP [4]: 1.46**
72 | O=C1OCCN1c1cccc(Nc2ncc(C(F)(F)F)c(NC3CC3)n2)c1 [compound 834] | 2.18*; | logP [4]: 2.18**
73 | Brc1cnc(Nc2ccccc2)nc1NC1CC1 [compound 836] | 2.56* | 
74 | CSc1cccc(Nc2nc(C)c(Cl)c(NC3CC3)n2)c1 [compound 837] |  | logP [4]: 2.23**
75 | Cc1nc(Nc2cccc(N3CCCC3=O)c2)nc(NC2CC2)c1Cl [compound 838] |  | logP [4]: 1.47**
76 | COCc1cccc(Nc2nc(C)c(Cl)c(NC3CC3)n2)c1 [compound 839] |  | logP [4]: 1.67**
77 | Cc1nc(Nc2ccc(N3CCOC3=O)cc2)nc(NC2CC2)c1Cl [compound 840] |  | logP [4]: 1.31**
78 | CC(=O)CCc1cccc(Nc2ncc(Cl)c(NC3CC3)n2)c1 [compound 841] | 1.72* | 
79 | O=C1OCCN1c1cccc(Nc2ncc(Br)c(NC3CC3)n2)c1 [compound 842] | 1.51* | 
80 | Oc1c(Cl)cc(Nc2ncc(Cl)c(NC3CC3)n2)cc1Cl [compound 845] | 1.99* | 
81 | CN1CCN(c2ccc(Nc3ncc(Cl)c(NC4CC4)n3)cc2C(F)(F)F)CC1 [compound 846] |  | logP [4]: 1.38**
82 | COCc1cccc(Nc2ncc(I)c(NC3CC3)n2)c1 [compound 847] | 1.86* | 
83 | O=C(c1cccc(Nc2ncc(Cl)c(NC3CC3)n2)c1)N1CCCC1 [compound 848] | 1.57* | 
84 | CON(C(C)=O)c1cccc(Nc2ncc(Br)c(NC3CC3)n2)c1 [compound 849] |  | logP [4]: 1.68**
85 | CON(C(C)=O)c1cccc(Nc2ncc(Cl)c(NC3CC3)n2)c1 [compound 850] |  | logP [4]: 1.57**
86 | CC(=O)Cc1ccc(Nc2ncc(Cl)c(NC3CC3)n2)cc1 [compound 851] | 1.48* | 
87 | CCCS(=O)(=O)c1cccc(Nc2ncc(Cl)c(NC3CC3)n2)c1 [compound 852] | 2.25* | 
88 | CO/N=C(\C)Cc1cccc(Nc2ncc(Cl)c(NC3CC3)n2)c1 [compound 854] | 2.2* | 
89 | COc1cccc(Nc2ncc(I)c(NC3CC3)n2)c1 [compound 855] | 1.97* | 

From patent US20100081679A1, “DIAMINOPYRIMIDINES AS FUNGICIDES” (Bayer CropScience AG, priority 2007, published 2010)
